The subject of series [1] is human breast carcinoma MCF-7 cells. Nature of the series: In vitro antiproliferative assay (SRB), MCF-7. It counts as cell-based. Particulars: mean ± SD; for IC50: Homo sapiens, MCF7, 72 h exposure; for IC50 MCF-7: 72 h exposure. Here is the method: (§1) Biphenotypic B myelomonocytic leukemia MV4-11, human lung carcinoma A549, human breast carcinoma MCF-7, and normal mouse fibroblast BALB/3T3 cells were obtained from American Type Culture Collection (Rockville, Maryland, USA). All the cell lines are being maintained at the Institute of Immunology and Experimental Therapy, Wroclaw, Poland. MV4-11 cells were cultured in RPMI 1640 medium (Gibco, UK) with 2 mM L-glutamine adjusted to contain 1.0 mM sodium pyruvate, and 10% fetal bovine serum (FBS) (all from Sigma-Aldrich, Germany). A549 cells were cultured in RPMI 1640+ Opti-MEM (1:1) (both from Gibco, UK), MCF-7 cells in Eagle medium (IIET, Wroclaw, Poland), BALB/3T3 in Dulbecco medium (IIET, Poland) supplemented with 2 mM L-glutamine and 1.0 mM sodium pyruvate, 10% fetal bovine serum (all from Sigma-Aldrich, Germany). The MCF-7 cell culture was supplemented with 0.8 mg/l of insulin (Sigma-Aldrich, Germany). All culture media were supplemented with 100 units/ml penicillin, and 100 µg/ml streptomycin (both from Polfa Tarchomin S.A., Poland). All cell lines were grown at 37 °C with 5% CO2 humidified atmosphere (Łączkowski et al. [2014], [2016a]). Prior to usage, the compounds were dissolved in DMSO and culture medium (1: 9) to the concentration of 1 mg/ml, and subsequently diluted in culture medium to reach the required concentrations (0.1, 1, 10, and 100 µg/ml) (Łączkowski et al. [2014], [2016a]). Twenty-four hours prior to the addition of the tested compounds, the cells counted using Burker hemocytometer were plated in 96-well plates (Sarstedt, Germany) at a density of 1 × 10^4 cells per well. The assay was performed after 72 h of exposure to varying concentrations of the tested agents. The in vitro cytotoxic effect of all agents was examined using the SRB assay for adherent cells (A549, MCF-7, and BALB/3T3) or MTT assay for leukemia cells (MV4-11) as described previously. […] Each compound in each concentration was tested in triplicate in a single experiment, which was repeated 3–7 times (Rubinstein et al. [1990]; Bramson et al. [1995]). Cells were attached to the bottom of plastic wells by fixing them with cold 50% TCA (trichloroacetic acid, POCH, Gliwice, Poland) on top of the culture medium in each well. The plates were incubated at 4 °C for 1 h and then washed five times with tap water. The cellular material fixed with TCA was stained with 0.1% sulforhodamine B (SRB, Sigma-Aldrich, Germany) and dissolved in 1% acetic acid (POCH, Gliwice, Poland) for 30 min. Unbound dye was removed by rinsing (4×) in 1% acetic acid. The protein-bound dye was extracted with 10 mM unbuffered Tris base (Sigma-Aldrich, Germany) for determination of the optical density (λ = 540 nm) in a computer-interfaced, 96-well Synergy H4 (BioTek Instruments USA) photometer microtiter plate reader (Sidoryk et al. [2012]).

For series [2], the system named is human lung carcinoma A549 cells. Nature of the series: In vitro antiproliferative assay (SRB), A549. Type of series: cell-based. To be noted: mean ± SD; for IC50: Homo sapiens, A549, 72 h exposure; for IC50 A549: 72 h exposure. Here is the method: as §1
Series [3] is described as follows: Cell viability assay (MTT), VERO. Type of series: cell-based, Cercopithecus aethiops. To be noted: African green monkey (Cercopithecus aethiops), VERO kidney epithelial cells. The procedure, abridged: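 L929 and VERO cells seeded at 1.0 × 10^4/well, attached 24 h, then exposed 24 h to compounds at 0.9–125.00 μg/ml (from DMSO stock). MTT (1 mg/ml) added for 2 h at 37 °C, formazan dissolved in DMSO, OD read at 550 nm. Viability expressed as percentage of 2.5% DMSO-treated controls; triplicate.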

Broadly, the IC50 is the concentration that gives 50% inhibition. Broadly, the viability is a read-out of living cells in per cent, often relative to untreated cells.

As for `C/C(=N\Nc1nc(-c2ccc(F)cc2)cs1)c1ccc(Nc2nc(N)nc(N)n2)cc1` [Compound 4a, (E)-N^2-(4-(1-(2-(4-(4-fluorophenyl)-1,3-thiazol-2-yl)hydrazinylidene)ethyl)phenyl)-1,3,5-triazine-2,4,6-triamine], the IC50 in series [1] turned out to be 4.28 ± 0.984 µg/mL. Besides, in series [2], the IC50 turned out to be 38.6 ± 4.17 µg/mL. Further, in series [3], the viability at 24 h, 0.9 µg/ml turned out to be 90.5%; the viability at 24 h, 1.8 µg/ml was determined as 97.6%; the viability at 24 h, 3.9 µg/ml stood at 100%; the viability at 24 h, 7.8 µg/ml was 95.9%. In series [3], the viability at 24 h, 15.6 µg/ml came out at 103%; the viability at 24 h, 31.2 µg/ml came out at 107%; the viability at 24 h, 62.5 µg/ml came out at 105%; the viability at 24 h, 125 µg/ml was 100%.

With `C/C(=N\Nc1nc(-c2ccc(Cl)cc2)cs1)c1ccc(Nc2nc(N)nc(N)n2)cc1` [Compound 4b, (E)-N^2-(4-(1-(2-(4-(4-chlorophenyl)-1,3-thiazol-2-yl)hydrazinylidene)ethyl)phenyl)-1,3,5-triazine-2,4,6-triamine], in series [1], the IC50 was determined as 3.23 ± 0.401 µg/mL. Besides, in series [2], the IC50 amounted to 23.8 ± 4.41 µg/mL. In series [3], the viability at 24 h, 0.9 µg/ml was 93.5%; the viability at 24 h, 1.8 µg/ml amounted to 95.8%; the viability at 24 h, 3.9 µg/ml amounted to 90.1%; the viability at 24 h, 7.8 µg/ml is 94.7%. In addition, in series [3], the viability at 24 h, 15.6 µg/ml stood at 103%; the viability at 24 h, 31.2 µg/ml was found to be 115%; the viability at 24 h, 62.5 µg/ml turned out to be 115%; the viability at 24 h, 125 µg/ml is 113%.

For the molecule `C/C(=N\Nc1nc(-c2ccc(C)cc2)cs1)c1ccc(Nc2nc(N)nc(N)n2)cc1` [Compound 4c, (E)-N^2-(4-(1-(2-(4-(4-tolyl)-1,3-thiazol-2-yl)hydrazinylidene)ethyl)phenyl)-1,3,5-triazine-2,4,6-triamine], the IC50 in series [1] worked out at 8.33 ± 2.83 µg/mL. Further, the IC50 in series [2] amounted to 62.4 ± 11.5 µg/mL. In addition, in series [3], the viability at 24 h, 0.9 µg/ml was found to be 92.4%; the viability at 24 h, 1.8 µg/ml amounted to 102%; the viability at 24 h, 3.9 µg/ml is 99%; the viability at 24 h, 7.8 µg/ml was found to be 101%. Further, in series [3], the viability at 24 h, 15.6 µg/ml came to 99.6%; the viability at 24 h, 31.2 µg/ml was determined as 102%; the viability at 24 h, 62.5 µg/ml worked out at 112%; the viability at 24 h, 125 µg/ml came to 109%.

With `C/C(=N\Nc1nc(-c2ccc(Br)cc2)cs1)c1ccc(Nc2nc(N)nc(N)n2)cc1` [Compound 4d, (E)-N^2-(4-(1-(2-(4-(4-bromophenyl)-1,3-thiazol-2-yl)hydrazinylidene)ethyl)phenyl)-1,3,5-triazine-2,4,6-triamine], in series [1], the IC50 was determined as 3.18 ± 0.192 µg/mL. In series [2], the IC50 came to 24.7 ± 6.1 µg/mL. In series [3], the viability at 24 h, 0.9 µg/ml came out at 99.9%; the viability at 24 h, 1.8 µg/ml stood at 94.4%; the viability at 24 h, 3.9 µg/ml turned out to be 90.1%; the viability at 24 h, 7.8 µg/ml is 86%. In series [3], the viability at 24 h, 15.6 µg/ml was found to be 104%; the viability at 24 h, 31.2 µg/ml was 114%; the viability at 24 h, 62.5 µg/ml is 100%; the viability at 24 h, 125 µg/ml amounted to 112%.

Take `C/C(=N\Nc1nc(-c2ccc(I)cc2)cs1)c1ccc(Nc2nc(N)nc(N)n2)cc1` [Compound 4e, (E)-N^2-(4-(1-(2-(4-(4-iodophenyl)-1,3-thiazol-2-yl)hydrazinylidene)ethyl)phenyl)-1,3,5-triazine-2,4,6-triamine]: the IC50 in series [1] worked out at 8.41 ± 0.373 µg/mL. In addition, the IC50 in series [2] was 45.4 ± 18.3 µg/mL. Further, in series [3], the viability at 24 h, 0.9 µg/ml was 100%; the viability at 24 h, 1.8 µg/ml was determined as 100%; the viability at 24 h, 3.9 µg/ml was 97%; the viability at 24 h, 7.8 µg/ml was 87.3%. In series [3], the viability at 24 h, 15.6 µg/ml came to 101%; the viability at 24 h, 31.2 µg/ml is 113%; the viability at 24 h, 62.5 µg/ml worked out at 117%; the viability at 24 h, 125 µg/ml is 113%.

As for `C/C(=N\Nc1nc(-c2cc3ccccc3oc2=O)cs1)c1ccc(Nc2nc(N)nc(N)n2)cc1` [Compound 4f, (E)-3-(2-(2-(1-(4-(4,6-diamino-1,3,5-triazin-2-yloamino)phenyl)ethylidene)hydrazinyl)thiazol-4-yl)-2H-chromen-2-on], the “IC50 MCF-7” value in series [1] is recorded as “─”. Further, in series [2], the “IC50 A549” value is recorded as “no antiproliferative activity”.

Turning to `CC(=O)Nc1ccc(-c2csc(N/N=C(\C)c3ccc(Nc4nc(N)nc(N)n4)cc3)n2)cc1` [Compound 4g, (E)-N^2-(4-(2-(2-(1-(4-(4,6-diamino-1,3,5-triazin-2-yloamino)phenyl)ethylidene)hydraziny)thiazol-4-yl)phenyl)-acetamide], in series [1], the “IC50 MCF-7” value stood at 6.67 ± 2.958 µg/mL. Moreover, the “IC50 A549” value in series [2] is “no antiproliferative activity”.

For `C/C(=N\Nc1nc(-c2ccc([N+](=O)[O-])cc2)cs1)c1ccc(Nc2nc(N)nc(N)n2)cc1` [Compound 4h, (E)-N^2-(4-(1-(2-(4-(4-nitrophenyl)-1,3-thiazol-2-yl)hydrazinylidene)ethyl)phenyl)-1,3,5-triazine-2,4,6-triamine], the IC50 in series [1] is 8.72 ± 5.28 µg/mL. Besides, the IC50 in series [2] was 33.6 ± 2.42 µg/mL. In addition, in series [3], the viability at 24 h, 0.9 µg/ml is 104%; the viability at 24 h, 1.8 µg/ml amounted to 99.4%; the viability at 24 h, 3.9 µg/ml stood at 106%; the viability at 24 h, 7.8 µg/ml is 109%. In addition, in series [3], the viability at 24 h, 15.6 µg/ml was found to be 110%; the viability at 24 h, 31.2 µg/ml came out at 109%; the viability at 24 h, 62.5 µg/ml came to 109%; the viability at 24 h, 125 µg/ml amounted to 104%.

For the molecule `C/C(=N\Nc1nc(-c2ccc(Cl)c(Cl)c2)cs1)c1ccc(Nc2nc(N)nc(N)n2)cc1` [Compound 4i, (E)-N^2-(4-(1-(2-(4-(3,4-dichlorophenyl)-1,3-thiazol-2-yl)hydrazinylidene)ethyl)phenyl)-1,3,5-triazine-2,4,6-triamine], the IC50 in series [1] came to 3.69 ± 1.64 µg/mL. The IC50 in series [2] worked out at 57.5 ± 20.7 µg/mL. Further, in series [3], the viability at 24 h, 0.9 µg/ml was 97.5%; the viability at 24 h, 1.8 µg/ml came to 93.7%; the viability at 24 h, 3.9 µg/ml turned out to be 93.9%; the viability at 24 h, 7.8 µg/ml turned out to be 92.6%. Also, in series [3], the viability at 24 h, 15.6 µg/ml is 97.3%; the viability at 24 h, 31.2 µg/ml is 112%; the viability at 24 h, 62.5 µg/ml stood at 111%.

As for `C/C(=N\Nc1nc(-c2ccc(NS(C)(=O)=O)cc2)cs1)c1ccc(Nc2nc(N)nc(N)n2)cc1` [Compound 4j, (E)-N-(4-(2-(2-(1-(4-(4,6-diamino-1,3,5-triazin-2-yloamino)phenyl)ethylidene)hydrazinyl)thiazol-4-yl)phenyl)-methanesulfonamide], the “IC50 MCF-7” value in series [1] was 5.95 ± 2.165 µg/mL. Further, the “IC50 A549” value in series [2] is “no antiproliferative activity”.

Take `C/C(=N\Nc1nc(-c2ccccc2)cs1)c1ccc(Nc2nc(N)nc(N)n2)cc1` [Compound 4k, (E)-N^2-(4-(1-(2-(4-phenyl-1,3-thiazol-2-yl)hydrazinylidene)ethyl)phenyl)-1,3,5-triazine-2,4,6-triamine]: the IC50 in series [1] is 5.73 ± 2.05 µg/mL. The “IC50 A549” value in series [2] is “no antiproliferative activity”. In series [3], the viability at 24 h, 0.9 µg/ml worked out at 91.9%; the viability at 24 h, 1.8 µg/ml stood at 95.5%; the viability at 24 h, 3.9 µg/ml turned out to be 99.3%; the viability at 24 h, 7.8 µg/ml is 95.7%. Further, in series [3], the viability at 24 h, 15.6 µg/ml turned out to be 104%; the viability at 24 h, 31.2 µg/ml is 106%; the viability at 24 h, 62.5 µg/ml came out at 113%; the viability at 24 h, 125 µg/ml was 113%.
